The values below are quoted from earlier work in patent US20240277756A1 (NACAMED AS, priority 2021, published 2024).

Each structure is given as a SMILES string.

The conditions of data set [1]: oral.
For data set [2] the following is noted: calculated log P values from Foye's Principles of Medicinal Chemistry, Seventh Edition (2011).

Turning to `C[C@@H]1[C@H](O)[C@@H](C)/C=C/C=C/C=C/C=C/C=C/C=C/C=C/[C@H](O[C@@H]2O[C@H](C)[C@@H](O)[C@H](N)[C@@H]2O)C[C@@H]2O[C@](O)(C[C@@H](O)C[C@@H](O)[C@H](O)CC[C@@H](O)C[C@@H](O)CC(=O)O[C@H]1C)C[C@H](O)[C@H]2C(=O)O` [amphotericin B], in data set [1], the “absolute bioavailability (in words)” value was “very low”.

As to `CCCc1nc(C)c2c(=O)nc(-c3cc(S(=O)(=O)N4CCN(CC)CC4)ccc3OCC)[nH]n12` [valdanafil], in data set [2], the lipophilicity (log P) is 3.64.

For orientation: log P means a log measure of how a compound divides between an organic and an aqueous phase.
